Test system: 317291-083-R-J1-PDC complex spheroids, viability
Test: Anticancer human tumor 317291-083-R-J1-PDC patient-derived soft tissue sarcoma cell line growth inhibition [GQUAD]
Conditions: for IC50: curve of first compound; for viability, T/C: stronger effect = lower value; active = viability on the fitted dose curve at most 10% of control; inactive = the rest
Summary of the method: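 Multi-cell-type spheroids of tumor cells with HUVEC and mesenchymal stem cells, treated with drug combinations. Concentrations descend in half-log steps from near clinical Cmax, or from 10 microM where Cmax is unknown; viability read-out.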

[1] = second compound 0.0316 µM, first compound 0.0316 µM
[2] = second compound 0.0316 µM, first compound 0.1 µM
[3] = second compound 0.0316 µM, first compound 0.316 µM
[4] = second compound 0.0316 µM, first compound 1 µM
[5] = second compound 0.0316 µM, first compound 3.16 µM
[6] = second compound 0.0316 µM, first compound 10 µM
[7] = second compound 0.1 µM, first compound 0.0316 µM
[8] = second compound 0.1 µM, first compound 0.1 µM
[9] = second compound 0.1 µM, first compound 0.316 µM
[10] = second compound 0.1 µM, first compound 1 µM
[11] = second compound 0.1 µM, first compound 3.16 µM
[12] = second compound 0.1 µM, first compound 10 µM
[13] = second compound 0.316 µM, first compound 0.0316 µM
[14] = second compound 0.316 µM, first compound 0.1 µM
[15] = second compound 0.316 µM, first compound 0.316 µM
[16] = second compound 0.316 µM, first compound 1 µM
[17] = second compound 0.316 µM, first compound 3.16 µM
[18] = second compound 0.316 µM, first compound 10 µM
[19] = second compound 1 µM, first compound 0.0316 µM
[20] = second compound 1 µM, first compound 0.1 µM
[21] = second compound 1 µM, first compound 0.316 µM
[22] = second compound 1 µM, first compound 1 µM
[23] = second compound 1 µM, first compound 3.16 µM
[24] = second compound 1 µM, first compound 10 µM
[25] = second compound 3.16 µM, first compound 0.0316 µM
[26] = second compound 3.16 µM, first compound 0.1 µM
[27] = second compound 3.16 µM, first compound 0.316 µM
[28] = second compound 3.16 µM, first compound 1 µM
[29] = second compound 3.16 µM, first compound 3.16 µM
[30] = second compound 3.16 µM, first compound 10 µM
[31] = second compound 10 µM, first compound 0.0316 µM
[32] = second compound 10 µM, first compound 0.1 µM
[33] = second compound 10 µM, first compound 0.316 µM
[34] = second compound 10 µM, first compound 1 µM
[35] = second compound 10 µM, first compound 3.16 µM
[36] = second compound 10 µM, first compound 10 µM
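Note: spheroids exposed to compounds for one week before readout.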
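Throughout, for viability, T/C: percent viability relative to DMSO vehicle wells taken as 100%.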

CCCS(=O)(=O)Nc1ccc(F)c(C(=O)c2c[nH]c3ncc(-c4ccc(Cl)cc4)cc23)c1F + Cc1[nH]c2ccc(F)cc2c1-c1nc2c3cccnc3c3ncccc3c2[nH]1
2.61 µM: IC50 (second compound 0.0316 µM) | IC50 (second compound 0.1 µM)
0.343 µM: IC50 (second compound 1 µM)
< 0.0316 µM: IC50 (second compound 3.16 µM) | IC50 (second compound 10 µM)
active: viability, T/C [30] 5.4% | viability, T/C [36] 6.95%
inactive: viability, T/C [1] 110% | viability, T/C [2] 103% | viability, T/C [3] 95.6% | viability, T/C [4] 89.2% | viability, T/C [5] 41.7% | viability, T/C [6] 14.3% | viability, T/C [7] 95.5% | viability, T/C [8] 88.3% | viability, T/C [9] 83.5% | viability, T/C [10] 94.3% | viability, T/C [11] 41.9% | viability, T/C [12] 14% | viability, T/C [13] 73.5% | viability, T/C [14] 72.5% | viability, T/C [15] 67.1% | viability, T/C [16] 67.8% | viability, T/C [17] 31.7% | viability, T/C [18] 10.3% | viability, T/C [19] 62.1% | viability, T/C [20] 61% | viability, T/C [21] 41.5% | viability, T/C [22] 41.6% | viability, T/C [23] 37.7% | viability, T/C [24] 11.3% | viability, T/C [25] 46% | viability, T/C [26] 26.5% | viability, T/C [27] 30.2% | viability, T/C [28] 19.9% | viability, T/C [29] 15.9% | viability, T/C [31] 40.7% | viability, T/C [32] 47.5% | viability, T/C [33] 42.4% | viability, T/C [34] 49.3% | viability, T/C [35] 25.3%
1.76 µM: IC50 (second compound 0.316 µM)

CC(=O)O[C@H]1C(=O)[C@@]2(C)[C@H]([C@H](OC(=O)c3ccccc3)[C@]3(O)C[C@H](OC(=O)[C@H](O)[C@@H](NC(=O)c4ccccc4)c4ccccc4)C(C)=C1C3(C)C)[C@]1(OC(C)=O)CO[C@@H]1C[C@@H]2O + CN(C)c1ccc(Nc2c3ccc(NC(=O)CCN4CCCC4)cc3nc3cc(NC(=O)CCN4CCCC4)ccc23)cc1
active: viability, T/C [16] 8.69% | viability, T/C [17] 10.2% | viability, T/C [18] 9.42% | viability, T/C [20] 6.55% | viability, T/C [21] 5.24% | viability, T/C [22] 7.99% | viability, T/C [23] 6.09% | viability, T/C [24] 6.28% | viability, T/C [25] 9.14% | viability, T/C [26] 0.56% | viability, T/C [27] 0.37% | viability, T/C [28] 0.6% | viability, T/C [29] 1.62% | viability, T/C [30] 0.92% | viability, T/C [31] 0.91% | viability, T/C [32] 0.27% | viability, T/C [33] 0.18% | viability, T/C [34] 0.29% | viability, T/C [35] 0.25% | viability, T/C [36] 0.23%
< 0.0316 µM: IC50 (second compound 0.0316 µM) | IC50 (second compound 0.1 µM) | IC50 (second compound 0.316 µM) | IC50 (second compound 1 µM) | IC50 (second compound 3.16 µM) | IC50 (second compound 10 µM)
inactive: viability, T/C [1] 46.5% | viability, T/C [2] 17% | viability, T/C [3] 12.4% | viability, T/C [4] 14.7% | viability, T/C [5] 11.4% | viability, T/C [6] 12.4% | viability, T/C [7] 39.5% | viability, T/C [8] 13.6% | viability, T/C [9] 12.5% | viability, T/C [10] 12.2% | viability, T/C [11] 10.4% | viability, T/C [12] 10.6% | viability, T/C [13] 25.9% | viability, T/C [14] 14% | viability, T/C [15] 9.98% | viability, T/C [19] 21.7%

C#Cc1c(F)ccc2cc(O)cc(-c3ncc4c(N5CC6CCC(C5)N6)nc(OCC56CCCN5CC(F)C6)nc4c3F)c12 (stereo not given) + Cc1cnc(CNC(=O)c2c(=O)c3ccc(N4CCCN(C)CC4)nc3n3c2sc2ccccc23)cn1
inactive: viability, T/C [1] 107% | viability, T/C [2] 104% | viability, T/C [3] 99.9% | viability, T/C [4] 105% | viability, T/C [5] 90.6% | viability, T/C [6] 66.5% | viability, T/C [7] 89% | viability, T/C [8] 74.4% | viability, T/C [9] 57.7% | viability, T/C [10] 87.2% | viability, T/C [11] 76% | viability, T/C [12] 80.9% | viability, T/C [13] 45.3% | viability, T/C [14] 52.1% | viability, T/C [15] 53.3% | viability, T/C [16] 36.7% | viability, T/C [17] 51.7% | viability, T/C [18] 51.8% | viability, T/C [19] 31.4% | viability, T/C [20] 36.5% | viability, T/C [21] 38.9% | viability, T/C [22] 24.8% | viability, T/C [23] 27.4% | viability, T/C [24] 21% | viability, T/C [25] 14.7% | viability, T/C [26] 18.3% | viability, T/C [27] 31.5% | viability, T/C [28] 14.1% | viability, T/C [29] 22.6% | viability, T/C [30] 19.1% | viability, T/C [31] 38.2% | viability, T/C [32] 22.9% | viability, T/C [33] 10.5% | viability, T/C [34] 13.7%
> 10 µM: IC50 (second compound 0.0316 µM) | IC50 (second compound 0.1 µM)
active: viability, T/C [35] 11.1% | viability, T/C [36] 3.98%
< 0.0316 µM: IC50 (second compound 0.316 µM) | IC50 (second compound 1 µM) | IC50 (second compound 3.16 µM) | IC50 (second compound 10 µM)

C=CC(=O)N1CCN(c2nc(=O)n(-c3c(C)ccnc3C(C)C)c3nc(-c4c(O)cccc4F)c(F)cc23)C(C)C1 (stereo not given) + CN(C)c1ccc(Nc2c3ccc(NC(=O)CCN4CCCC4)cc3nc3cc(NC(=O)CCN4CCCC4)ccc23)cc1
< 0.0316 µM: IC50 (second compound 3.16 µM) | IC50 (second compound 10 µM)
> 10 µM: IC50 (second compound 0.0316 µM) | IC50 (second compound 0.1 µM) | IC50 (second compound 0.316 µM)
inactive: viability, T/C [1] 105% | viability, T/C [2] 90.8% | viability, T/C [3] 114% | viability, T/C [4] 113% | viability, T/C [5] 98.4% | viability, T/C [6] 65.2% | viability, T/C [7] 115% | viability, T/C [8] 100% | viability, T/C [9] 99.1% | viability, T/C [10] 107% | viability, T/C [11] 91.8% | viability, T/C [12] 70.8% | viability, T/C [13] 81.5% | viability, T/C [14] 69.9% | viability, T/C [15] 73.2% | viability, T/C [16] 91.2% | viability, T/C [17] 82.9% | viability, T/C [18] 51.4% | viability, T/C [19] 57% | viability, T/C [20] 44.1% | viability, T/C [21] 52.3% | viability, T/C [22] 81.2% | viability, T/C [23] 30.2% | viability, T/C [24] 22.5% | viability, T/C [25] 32.1% | viability, T/C [26] 22% | viability, T/C [27] 29.2% | viability, T/C [28] 51.6% | viability, T/C [29] 42.4% | viability, T/C [30] 21.1% | viability, T/C [31] 13.5% | viability, T/C [32] 15.1% | viability, T/C [33] 8.38% | viability, T/C [34] 8.02% | viability, T/C [35] 6.86% | viability, T/C [36] 23.1%
1.42 µM: IC50 (second compound 1 µM)

COc1ncnc(C2CC2)c1-c1ncc2cnn(Cc3ccc(-c4nc(C(F)(F)F)cn4C(C)C)cc3)c2n1 + Cc1[nH]c2ccc(F)cc2c1-c1nc2c3cccnc3c3ncccc3c2[nH]1
inactive: viability, T/C [1] 110% | viability, T/C [2] 77.8% | viability, T/C [3] 84.5% | viability, T/C [4] 72.2% | viability, T/C [5] 64.3% | viability, T/C [6] 92.3% | viability, T/C [7] 85.7% | viability, T/C [8] 96.5% | viability, T/C [9] 68.3% | viability, T/C [10] 63.7% | viability, T/C [11] 93.4% | viability, T/C [12] 65% | viability, T/C [13] 63.3% | viability, T/C [14] 52.8% | viability, T/C [15] 50.4% | viability, T/C [16] 37.2% | viability, T/C [17] 46% | viability, T/C [18] 35.2% | viability, T/C [19] 41.4% | viability, T/C [20] 37.9% | viability, T/C [21] 35.3% | viability, T/C [22] 41.2% | viability, T/C [23] 40.5% | viability, T/C [24] 39.8% | viability, T/C [25] 35.1% | viability, T/C [26] 27.6% | viability, T/C [27] 27.1% | viability, T/C [28] 23.3% | viability, T/C [29] 23.2% | viability, T/C [30] 30.5% | viability, T/C [31] 35.8% | viability, T/C [32] 35.8% | viability, T/C [33] 31.1% | viability, T/C [34] 33.8% | viability, T/C [35] 33.5% | viability, T/C [36] 28.3%
< 0.0316 µM: IC50 (second compound 1 µM) | IC50 (second compound 3.16 µM) | IC50 (second compound 10 µM)
> 10 µM: IC50 (second compound 0.0316 µM) | IC50 (second compound 0.1 µM)
0.2 µM: IC50 (second compound 0.316 µM)
